These are literature values, as cited in patent US8529964B1, “Method and composition for suppression and control of citrus canker and other plant diseases” (priority 2010, dated 2013).

Regarding `O.O.O=C([O-])c1ccccc1.O=C([O-])c1ccccc1.[Cu+2]` [copper benzoate dehydrate], the “water solubility (in words)” value is reported as “slightly water soluble”.
